# Assay results as given in US20030229451A1, “Methods and systems for analyzing complex biological systems” (priority 2001, published 2003).
# Legend:
# [1] = test system: Arabidopsis thaliana plants; test: SOA1 phenotypic analysis of herbicide-treated Arabidopsis (MIC, Tmic, leaf traits); type: in vivo
# Magnaporthe grisea = type: cell-based; conditions: in the presence of compound
# Arabidopsis thaliana [2] = test: MOA1 gene expression profiling (22,000 gene array)
# Arabidopsis thaliana [3] = test: MOA1 biochemical (metabolite) profiling by LC-MS and GC-MS
# [4] = numeric value standardized to mock treated
compound,measurement,setting,value
CP(=O)(O)CCC(N)C(=O)O (stereo not drawn) [Glufosinate],characteristic morphological symptoms,[1]; herbicide-treated Arabidopsis,Chlorosis and leaf curling
same,leafCurling Dev.,[1]; [4],2
same,leafTwisting Dev.,[1]; [4],1
same,leafWidth Dev.,[1]; [4],−2
same,matureLeafAnthocyanins Dev.,[1]; [4],0
same,matureLeafChlorosis Dev.,[1]; [4],3
same,matureLeafNecrosis Dev.,[1]; [4],0
same,newLeafAnthocyanins Dev.,[1]; [4],0
same,newLeafChlorosis Dev.,[1]; [4],3
same,newLeafNecrosis Dev.,[1]; [4],0
same,pointedLeaves Dev.,[1]; [4],1
same,tMic Dev.,"[1]; time to full range of symptoms at MIC, coded",1
same,nitrogen source utilization by M. grisea,Magnaporthe grisea,only able to utilize glutamine and glutamate as nitrogen sources
same,Regulated Genes: Down,"Arabidopsis thaliana [2]; 1 hr, p < 0.5",54
same,Regulated Genes: Up,"Arabidopsis thaliana [2]; 1 hr, p < 0.5",296
same,No. of Lethal Genes Altered,Arabidopsis thaliana [2]; genes essential for plant growth and development,10
same,Number of Metabolites Changed: (unknown #),"Arabidopsis thaliana [3]; 20 min, p < 0.05",25
same,Number of Metabolites Changed: Total #,"Arabidopsis thaliana [3]; 20 min, p < 0.05",33
same,Number of Metabolites Changed: (unknown #),"Arabidopsis thaliana [3]; 20 min, p < 0.11",33
same,Number of Metabolites Changed: Total #,"Arabidopsis thaliana [3]; 20 min, p < 0.11",48
same,Number of Metabolites Changed: (unknown #),"Arabidopsis thaliana [3]; 1 hr, p < 0.05",4 (4)
same,Number of Metabolites Changed: Total #,"Arabidopsis thaliana [3]; 1 hr, p < 0.05",4 (4)
same,Number of Metabolites Changed: (unknown #),"Arabidopsis thaliana [3]; 1 hr, p < 0.11",9 (9)
same,Number of Metabolites Changed: Total #,"Arabidopsis thaliana [3]; 1 hr, p < 0.11",9 (9)
